The subject of test [1] is bacterial strains that express the class D cephalosporinase OXA-15. In words: Synergy MIC / standard BLI potentiation MIC assay, strains expressing OXA-15. In kind it is cell-based, E. coli. To be noted: in the presence of a β-lactam; comparator Avibactam (comparator compound CCC). The procedure, abridged:
(§1)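 Broth microdilution in CAMHB per CLSI, ~10^5 CFU/mL, 18-20 h at 37° C; MIC is lowest concentration with no visible turbidity. Potentiation: β-lactam 128-0.13 μg/mL with BLI fixed at 4 μg/mL. Synergy: BLI serially diluted with β-lactam fixed. Engineered E. coli kept on 25 μg/mL tetracycline.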

Test [2] has as its system bacterial strains that express KPC β-lactamases. Put plainly: Synergy MIC / standard BLI potentiation MIC assay, strains expressing KPC β-lactamases. In kind it is cell-based. Conditions: more active for at least one KPC strain and/or better spectrum of activity than Avibactam; in the presence of a β-lactam. A digest of the protocol:
as §1

Structures can show the parent of a compound that is named as a salt.

As for `N[C@H]1CN[C@H](c2nnc([C@@H]3CC[C@@H]4CN3C(=O)N4OS(=O)(=O)O)o2)C1` [Compound 762, (2S,5R)-2-(5-((2S,4R)-4-aminopyrrolidin-2-yl)-1,3,4-oxadiazol-2-yl)-7-oxo-1,6-diazabicyclo[3.2.1]octan-6-yl hydrogen sulfate], the “activity against bacterial strains that express the class D cephalosporinase OXA-15, compared with Avibactam” value in test [1] was “more active than Avibactam”. In test [2], the “activity and/or spectrum of activity against bacterial strains that express KPC β-lactamases, compared with Avibactam” value is “more active than Avibactam”.

For the compound `N[C@@H]1CN[C@@H](c2nnc([C@@H]3CC[C@@H]4CN3C(=O)N4OS(=O)(=O)O)o2)C1` [Compound 763, (2S,5R)-2-(5-((2R,4S)-4-aminopyrrolidin-2-yl)-1,3,4-oxadiazol-2-yl)-7-oxo-1,6-diazabicyclo[3.2.1]octan-6-yl hydrogen sulfate], the “activity against bacterial strains that express the class D cephalosporinase OXA-15, compared with Avibactam” value in test [1] is recorded as “more active than Avibactam”. Moreover, in test [2], the “activity and/or spectrum of activity against bacterial strains that express KPC β-lactamases, compared with Avibactam” value is listed as “more active than Avibactam”.

As for `O=C1N2C[C@@H](CC[C@H]2c2nnc(CC3CCNC3)o2)N1OS(=O)(=O)O` (stereo partly drawn) [Compound 764, (2S,5R)-7-oxo-2-(5-(pyrrolidin-3-ylmethyl)-1,3,4-oxadiazol-2-yl)-1,6-diazabicyclo[3.2.1]octan-6-yl hydrogen sulfate], the “activity against bacterial strains that express the class D cephalosporinase OXA-15, compared with Avibactam” value in test [1] was “more active than Avibactam”. Further, in test [2], the “activity and/or spectrum of activity against bacterial strains that express KPC β-lactamases, compared with Avibactam” value is given as “more active than Avibactam”.

In the case of `O=C1N2C[C@@H](CC[C@H]2c2nnc(CN[C@H]3CCNC3)o2)N1OS(=O)(=O)O` [Compound 765, (2S,5R)-7-oxo-2-(5-(((S)-pyrrolidin-3-ylamino)methyl)-1,3,4-oxadiazol-2-yl)-1,6-diazabicyclo[3.2.1]octan-6-yl hydrogen sulfate], the “activity against bacterial strains that express the class D cephalosporinase OXA-15, compared with Avibactam” value in test [1] is recorded as “more active than Avibactam”. In test [2], the “activity and/or spectrum of activity against bacterial strains that express KPC β-lactamases, compared with Avibactam” value is on record as “more active than Avibactam”.

Regarding `O=C1N2C[C@@H](CC[C@H]2c2nnc(CN[C@@H]3CCNC3)o2)N1OS(=O)(=O)O` [Compound 766, (2S,5R)-7-oxo-2-(5-(((R)-pyrrolidin-3-ylamino)methyl)-1,3,4-oxadiazol-2-yl)-1,6-diazabicyclo[3.2.1]octan-6-yl hydrogen sulfate], in test [1], the “activity against bacterial strains that express the class D cephalosporinase OXA-15, compared with Avibactam” value is “more active than Avibactam”. In test [2], the “activity and/or spectrum of activity against bacterial strains that express KPC β-lactamases, compared with Avibactam” value was “more active than Avibactam”.

Regarding `N=C1NCC(c2nnc([C@@H]3CC[C@@H]4CN3C(=O)N4OS(=O)(=O)O)o2)N1` (stereo partly drawn) [Compound 767, (2S,5R)-2-(5-(2-iminoimidazolidin-4-yl)-1,3,4-oxadiazol-2-yl)-7-oxo-1,6-diazabicyclo[3.2.1]octan-6-yl hydrogen sulfate], in test [1], the “activity against bacterial strains that express the class D cephalosporinase OXA-15, compared with Avibactam” value is recorded as “more active than Avibactam”. Also, the “activity and/or spectrum of activity against bacterial strains that express KPC β-lactamases, compared with Avibactam” value in test [2] is listed as “more active than Avibactam”.

As for `N[C@H]1CC[C@@H](c2nnc([C@@H]3CC[C@@H]4CN3C(=O)N4OS(=O)(=O)O)o2)C1` [Compound 768, (2S,5R)-2-(5-((1R,3S)-3-aminocyclopentyl)-1,3,4-oxadiazol-2-yl)-7-oxo-1,6-diazabicyclo[3.2.1]octan-6-yl hydrogen sulfate], the “activity against bacterial strains that express the class D cephalosporinase OXA-15, compared with Avibactam” value in test [1] was “more active than Avibactam”. For the same compound, in test [2], the “activity and/or spectrum of activity against bacterial strains that express KPC β-lactamases, compared with Avibactam” value is reported as “more active than Avibactam”.

On to `O=C1N2C[C@@H](CC[C@H]2c2nnc(CCNC3CCNCC3)o2)N1OS(=O)(=O)O` [Compound 770, (2S,5R)-7-oxo-2-(5-(2-(piperidin-4-ylamino)ethyl)-1,3,4-oxadiazol-2-yl)-1,6-diazabicyclo[3.2.1]octan-6-yl hydrogen sulfate], for which the “activity against bacterial strains that express the class D cephalosporinase OXA-15, compared with Avibactam” value in test [1] was “more active than Avibactam”. Further, the “activity and/or spectrum of activity against bacterial strains that express KPC β-lactamases, compared with Avibactam” value in test [2] is reported as “more active than Avibactam”.

The values are drawn from patent US20140315876A1, “BETA-LACTAMASE INHIBITORS” (priority 2013, published 2014).
